Experimental data from US10155927B2, “Method for differentiation of pluripotent stem cells into cardiomyocytes” (Hoffmann-La Roche Inc., priority 2014, dated 2018).

What was measured:
[1] = system: human embryonic stem cells (hESC) and induced pluripotent stem cells (iPSC); assay: Differentiation of pluripotent stem cells (hESC or iPSC) into cardiomyocytes; format: cell-based; set-up: key to Amount of cardiomyocytes obtained: (−) No cardiomyocytes obtained; (+)—(+++): Amount of cardiomyocytes obtained; (+)—(+++): Amount of cardiomyocytes obtained; (+)—(+++): Amount of cardiomyocytes obtained; conditions: for Ability to induce cardiomyocyte differentiation: other Wnt inhibitors tested instead of Wnt-C59; for Amount of cardiomyocytes obtained: Experiments I-III
Protocol: (§1) To initialize differentiation, the cells are incubated in insulin-free medium comprising compound 21 (3-(3-Amino-phenyl)-4-(1-methyl-1H-indol-3-yl)-pyrrole-2,5-dione, also referred to as “compound 21” or “CP21” herein; see e.g., Gong et al. (2010) Bioorganic& Medicinal Chemistry Letters 20:1693-1696) to activate the wnt-pathway. The optimal concentration of compound 21 to induce cardiomyocyte differentiation is dependent on the cell density of the pluripotent cells that are attached to the cell vessel. […] This is surprising as prior art protocols require higher concentrations of other modulators of the Wnt pathway for efficient differentiation.
(§2) The optimal concentration was identified at 2 μM. […] In one embodiment, step c) of the differentiation method comprises incubating the cells in a medium comprising 1-10 μM Wnt-C59. In one preferred embodiment step c) of the differentiation method comprises incubating the cells in a medium comprising 2 μM Wnt-C59.
Anthelmintic niclosamide and Pyrvinium were tested for their ability to induce cardiomyocyte differentiation.
Human embryonic stem cells (hESC) or induced pluripotent stem cells (iPSC) were cultured in 56 cm^2 dishes coated with Matrigel (BD Bioscience, Cat. 354277) at 37° C. and 5% CO2 in 10 ml mTeSR1 medium (Stemcell Technologies, Cat. 05850).
To propagate pluripotent stem cells by conserving their pluripotent state, hESC or iPSC were treated with the following: the cells were washed once with 10 ml PBS−/−, and afterwards incubated with 3 ml Accutase (Innovative Cell Technologies, Cat. AT-104) for 2-3 minutes at 37° C. and 5% CO2, to detach the cells.
The enzymatic reaction of Accutase was stopped with 7 ml mTeSR1 and followed by centrifugation of the cells for 3 minutes at 500×g.
The cells were resuspended in 10 ml mTeSR1, and counted. For further cultivation, 2×10^6 cells were plate on 56 cm^2 dishes with fresh coated Matrigel. Further the hESC or iPSC were cultivated in 10 ml mTeSR1 and 10 μM Rock inhibitor, Y-27632 (Millipore, Cat. SCM075) at 37° C. and 5% CO2. Subsequently, 10 ml mTeSR1 medium was changed daily and the pluripotent stem cells were cultivated to a density of 80% before passaging.
For successful differentiation into cardiomyocytes, pluripotent stem cells were plated at high density using 5.5×10^5/cm^2 of hESC or iPSC. Passaging and cultivation were performed as described above for pluripotent stem cells.
After 24 hours (day 1) the hESC or iPSC were washed once with 180 μl/cm^2 PBS−/− and the cultivation medium was changed to 180 μl/cm^2 differentiation medium.
After 24 hours (day 2) incubation with CP21, the cells were washed with PBS−/− as described above and cultivated for 48 hours in 220 μl/cm^2 differentiation medium.
After 48 hours (day 4), the cells were washed with PBS−/− as described above and cultivated for 48 hours in 220 μl/cm^2 differentiation medium comprising 2 μM Wnt-C59 (Cellagen Technology, Cat. C7641-2s, International Patent Application Publication No. WO 20101 01849), a potent Wnt signaling inhibitor, by blocking Wnt secretion.
After 48 hours (day 6), the cells were washed with PBS−/− as described above and cultivated for 48 hours in 220 μl/cm^2 differentiation medium.
After 48 hours (day 8), the cells were washed with PBS−/− as described above and cultivated for 48 hours in 220 μl/cm^2 RPMI medium comprising ascorbic acid, penicillin-streptomycin, but now including B27 plus insulin, minus vitamin A (=expansion medium)
Subsequent medium changes were performed every 48 hours using 220 μl/cm^2 expansion medium.
To test the efficiency of the differentiation process, the cardiomyocytes were characterized at differentiation day 14 by cell immunohistochemistry and Fluorescence Activated Cell Sorting (FACS) using antigens specific to cardiomyocytes.
The protocol as described above was repeated with different CP21 concentrations. The results are shown in Table 1 below: (−) No cardiomyocytes obtained, (+)—(+++): Amount of cardiomyocytes obtained.

[2] = system: pluripotent cells (hESC or iPSC); assay: Cell viability / cell death during the differentiation protocol; format: cell-based
Protocol: as §1, §2

[3] = system: pluripotent stem cell derived cardiomyocytes; assay: xCELLigence cardiomyocyte beating analysis; format: cell-based, human
Protocol: Isoproterenol increases the heart rate and myocardial contractility by stimulating cardiac beta-1 receptors. To detect this proarrhythmic effect in the stem cell derived cardiomyocytes, 7×10^4/cm^2 cells were plated on special E-Plate Cardio 96 (Roche, Cat. No. 05232368001) coated with 130 μl/cm^2 0.1% Gelatine for 1 hour at 37° C. After cells attached to the plate and recovered for 2 days as described above, medium was changed to iCell Cardiomyocytes Maintenance Medium (Cellular Dynamics, Cat. No.CMM-100-120-005). Cells were measured using the xCELLigence RTCA Cardio System (Roche Applied Science). 7 days after plating the cells were treated with 3 μM Isoproterenol and measured directly. Each 96-well plate was measured at a resolution of 12.9 ms. The first 3 minutes were measured without interruption and over the next 24 hours the cells were measured every 15 minutes for 1 minute duration. Activation of β-receptors on the heart induces positive chronotropic effects in cardiomyocytes. To confirm that the pluripotent stem cell derived cardiomyocytes respond to β-receptor activation, the cardiomyocytes were incubated with the β-receptor agonist isoproterenol and subsequently analysed using the xCELLigence system.

O=C(Nc1ccc([N+](=O)[O-])cc1Cl)c1cc(Cl)ccc1O [Anthelmintic niclosamide, niclosamide]
Ability to induce cardiomyocyte differentiation [1]: did not result in a successful generation of cardiomyocytes

Cn1cc(C2=C(c3cccc(N)c3)C(=O)NC2=O)c2ccccc21 [CP21, 3-(3-Amino-phenyl)-4-(1-methyl-1H-indol-3-yl)-pyrrole-2,5-dione]
Amount of cardiomyocytes obtained ([1]; Cp21 conc. 0.3 μM): −
Amount of cardiomyocytes obtained ([1]; Cp21 conc. 1 μM): +
Amount of cardiomyocytes obtained ([1]; Cp21 conc. 2 μM): ++ and +++
Amount of cardiomyocytes obtained ([1]; Cp21 conc. 3 μM): ++ and +
Amount of cardiomyocytes obtained ([1]; Cp21 conc. 5 μM): + and −
Amount of cardiomyocytes obtained ([1]; Cp21 conc. 10 μM): −
Concentration resulting in the most efficient differentiation of pluripotent stem cells into cardiomyocytes ([1]; cell density 5.5×10^5/cm^2, tested 0-10 μM at 1.8-11×10^5/cm2 hESC or iPSC): 2 µM
Incubation time optimal for cardiogenesis ([1]; various incubation times tested, longer or shorter less efficient): 24 h
Cell death after incubation ([2]; After 24 h CP21 incubation): strong cell death
Concentrations showing decreased cell viability ([2]; step b) of differentiation): above 5 μM

Cc1cc(/C=C/c2ccc3cc(N(C)C)ccc3[n+]2C)c(C)n1-c1ccccc1 [Pyrvinium]
Ability to induce cardiomyocyte differentiation [1]: did not result in a successful generation of cardiomyocytes

Cc1cc(-c2ccc(CC(=O)Nc3ccc(-c4cccnc4)cc3)cc2)ccn1 [Wnt-C59, 2-(4-(2-methylpyridin-4-yl)phenyl)-N-(4-(pyridin-3-yl)phenyl)acetamide]
Optimal concentration for cardiomyocyte differentiation ([1]; Wnt repressor in step c), tested 1-10 μM): 2 µM
Effect on cardiomyocytes obtained ([1]; Wnt-C59 1-10 μM, step c)): significant increase in cardiomyocytes
Concentrations showing increased cell death ([2]; step c) of differentiation): more than 5 μM

CC(C)NCC(O)c1ccc(O)c(O)c1 (centres unmarked) [isoproterenol]
Beating rate ([3]; 3 μM isoproterenol, untreated control 45 beats per minute): 60 beats per minute
Effect on beating frequency ([3]; FIG. 5, xCELLigent analysis): increases beating frequency
